Laboratory results published in patent publication US20210278408A1, “METHODS OF TREATMENT OF CANCER WITH SUBSTITUTED PYRROLE AND PYRAZOLE COMPOUNDS AND DIAGNOSIS OF CANCERS SUSCEPTIBLE TO TREATMENT WITH SUBSTITUTED PYRROLE AND PYRAZOLE COMPOUNDS” (Bantam Pharmaceutical, LLC, priority 2018, published 2021).
Where two headings read alike, the source gives them in different places.

Tested on: 407 cancer cell lines
Assay: Cell viability of cancer cell lines (IC50), CellTiter-Glo Viability Assay, 96 h
Type: cell-based
Details: for IC50: read-out: Absolute IC50
Description: Viability was determined by using the 50% inhibitory concentration (IC50) as determined with the CellTiter-Glo® Viability Assay (Promega).
Experiments were initiated by first thawing and equilibrating the CellTiter-Glo® Buffer to room temperature. The lyophilized CellTiter-Glo® Substrate was also equilibrated to room temperature. The lyophilized substrate was reconstituted with the CellTiter-Glo® buffer to form the CellTiter-Glo® Reagent.
Cells were harvested during the logarithmic growth period, counted, and the cell concentration adjusted to 4.44×10^4 cells/mL using culture medium.
Cells were allowed to grow overnight and the following day, the TO reading was obtained by adding 10 μL culture medium to each well of Plate A. The plate was allowed to equilibrate at room temperature for thirty minutes, after which 50 μL CellTiter-Glo® reagent was added to each well. The contents were mixed for 5 min on an orbital shaker to induce cell lysis. Plates were incubated for 20 minutes to stabilize the luminescent signal and the TO luminescence recorded.
Test plate B was incubated for 96 h in the humidified incubator at 37° C. with 5% CO2.
Following the incubation, the plate was equilibrated at room temperature for thirty minutes. CellTiter-Glo® (50 μL) was added to each well of the plate and contents mixed for five minutes on an orbital shaker to induce cell lysis. The luminescent signal was allowed to stabilize at room temperature for 20 minutes and the luminescence recorded.
IC50 (EC50) was calculated using a dose-response curve, fitted using a nonlinear regression model with a sigmoidal dose response. Survival rate was calculated using the formula:
The Surviving rate (%)=(LumTest article−LumMedium control)/(LumNon-treated−LumMedium control)×100%.
Absolute IC50 (EC50) was calculated according to the dose-response curve generated by the statistical software (GraphPad Prism 5.0).

Cc1nn(-c2nc(-c3ccc(C(F)(F)F)cc3)c(SC(C)C)s2)c(C(=O)O)c1-c1cccc(F)c1 [Compound A197, 4-(3-fluorophenyl)-1-(5-(isopropylthio)-4-(4-(trifluoromethyl)phenyl)thiazol-2-yl)-3-methyl-1H-pyrazole-5-carboxylic acid]
IC50 (Homo sapiens, TT, 96 h, TT cells, 96 h): 2070 nM | IC50 (Homo sapiens, Toledo, 96 h, Toledo cells, 96 h): 1450 nM | IC50 (Homo sapiens, U2OS, 96 h, U-2 OS cells, 96 h): 16800 nM | IC50 (Homo sapiens, U2932, 96 h, U-2932 cells, 96 h): 460 nM | IC50 (Homo sapiens, U-87 MG, 96 h, U-87 MG cells, 96 h): 24900 nM | IC50 (Homo sapiens, U-251, 96 h, U251 cells, 96 h): 280 nM | IC50 (Homo sapiens, U-937, 96 h, U-937 cells, 96 h): 410 nM | IC50 (Homo sapiens, UACC-812, 96 h, UACC-812 cells, 96 h): > 30000 nM | IC50 (Homo sapiens, UMUC3, 96 h, UM-UC-3 cells, 96 h): 930 nM | IC50 (Homo sapiens, UO-31, 96 h, UO.31 cells, 96 h): > 30000 nM | IC50 (Homo sapiens, WM 266-4, 96 h, WM-266-4 cells, 96 h): > 30000 nM | IC50 (Homo sapiens, WSU-NHL, 96 h, WSU-NHL cells, 96 h): 480 nM | IC50 (Homo sapiens, WSUDLCL2, 96 h, WSU-DLCL2 cells, 96 h): 680 nM | IC50 (Homo sapiens, Y79, 96 h, Y-79 cells, 96 h): > 30000 nM | IC50 (Homo sapiens, Z-138, Z-138): 1500 nM | IC50 (Homo sapiens, ZR-75-1, ZR-75-1): 7810 nM | IC50 (Homo sapiens, ZR-75-30, 96 h): > 30000 nM | % inhibition at top conc. (HuCCT1, 96 h): 51.19% | % inhibition at top conc. (Ishikawa, 96 h): 82.51% | IC50 (JAR): 670 nM | % inhibition at top conc. (JEG-3 cells, 96 h): 52.54% | IC50 (JHH1, 96 h, JHH-1 cells, 96 h): > 30000 nM | IC50 (JHH7, 96 h, JHH-7 cells, 96 h): 660 nM | IC50 (JHH-4, 96 h, JHH-4 cells, 96 h): 1500 nM | IC50 (JVM13, JVM-13): 390 nM | % inhibition at top conc. (KATO III, 96 h): 45.89% | IC50 (KPL4, KPL-4): 250 nM | IC50 (L-82, L-82): 3780 nM | % inhibition at top conc. (LNCaP clone FGC, 96 h): 76.07% | IC50 (Li-7, Li-7): 850 nM | % inhibition at top conc. (MDA-MB-436, 96 h): 54.72% | % inhibition at top conc. (MKN1 cells, 96 h): 53.97% | % inhibition at top conc. (MKN45, 96 h): 14.51% | % inhibition at top conc. (MKN74 cells, 96 h): 52.90% | IC50 (MM.1R): 1190 nM | IC50 (MOLM16, 96 h, MOLM-16 cells, 96 h): 350 nM | IC50 (MS751, 96 h, MS751 cells, 96 h): > 30000 nM | IC50 (NAMALWA CSN/70): 490 nM | % inhibition at top conc. (NCI-H69 cells, 96 h): 21.37% | % inhibition at top conc. (NCI-H82, 96 h): 92.52% | % inhibition at top conc. (NCI-H146 cells, 96 h): 37.67% | % inhibition at top conc. (NCI-H209 cells, 96 h): 45.11% | % inhibition at top conc. (NCI-H292 cells, 96 h): 54.61% | IC50 (NCI-H322, 96 h, NCI-H322 cells, 96 h): 290 nM | % inhibition at top conc. (NCI-H358 cells, 96 h): 68.44% | % inhibition at top conc. (NCI-H446 cells, 96 h): 51.21% | % inhibition at top conc. (NCI-H460 cells, 96 h): 49.03% | % inhibition at top conc. (NCI-H520 cells, 96 h): 76.45% | % inhibition at top conc. (NCI-H526 cells, 96 h): 44.57% | % inhibition at top conc. (NCI-H727 cells, 96 h): 35.60% | IC50 (NCI-H820, 96 h, NCI-H820 cells, 96 h): 350 nM | % inhibition at top conc. (NCI-H820 cells, 96 h): 78.69% | % inhibition at top conc. (NCI-H1048 cells, 96 h): 66.49% | % inhibition at top conc. (NCI-H1155 cells, 96 h): 79.14% | % inhibition at top conc. (NCI-H1299 cells, 96 h): 83.01% | IC50 (NCI-H1435, NCI-H1435): 390 nM | IC50 (NCI-H1568, 96 h, NCI-H1568 cells, 96 h): 270 nM | % inhibition at top conc. (NCI-H1648 cells, 96 h): 57.33% | % inhibition at top conc. (NCI-H1651 cells, 96 h): 67.37% | IC50 (NCI-H1688, NCI-H1688): > 30000 nM | % inhibition at top conc. (NCI-H1703 cells, 96 h): 73.10% | IC50 (NCI-H1781, 96 h, NCI-H1781 cells, 96 h): > 30000 nM | % inhibition at top conc. (NCI-H1792 cells, 96 h): 68.85% | IC50 (NCI-H1915, 96 h, NCI-H1915 cells, 96 h): > 30000 nM | % inhibition at top conc. (NCI-H1975 cells, 96 h): 25.02% | % inhibition at top conc. (NCI-H1993 cells, 96 h): 78.76% | % inhibition at top conc. (NCI-H2087 cells, 96 h): 50.14% | % inhibition at top conc. (NCI-H2170 cells, 96 h): 75.97% | % inhibition at top conc. (NCI-H2228 cells, 96 h): 54.12% | % inhibition at top conc. (NCI-N87, 96 h): 54.19% | IC50 (NK-92MI): 6580 nM | IC50 (NOZ): 710 nM | % inhibition at top conc. (NUGC-3 cells, 96 h): 63.39% | % inhibition at top conc. (NUGC-4 cells, 96 h): 62.77% | IC50 (OCUG-1, OCUG-1): 1250 nM | IC50 (OCUM1, 96 h, OCUM-1 cells, 96 h): > 30000 nM | % inhibition at top conc. (OCUM-1 cells, 96 h): 19.71% | % inhibition at top conc. (OCUM-2D cells, 96 h): 65.33% | % inhibition at top conc. (OCUM-2M cells, 96 h): 66.13% | % inhibition at top conc. (OE19, 96 h): 53.21% | IC50 (OSC19, 96 h, OSC-19 cells, 96 h): > 30000 nM | % inhibition at top conc. (OVCAR-3 cells, 96 h): 46.65% | % inhibition at top conc. (OVCAR-8 cells, 96 h): 75.04% | IC50 (OZ): > 30000 nM | % inhibition at top conc. (PC-9 cells, 96 h): 52.79% | IC50 (PEER): 1870 nM | IC50 (PL45, PL45): 1190 nM | IC50 (RD-ES): > 30000 nM | % inhibition at top conc. (RPMI-2650 cells, 96 h): 52.41% | % inhibition at top conc. (RT4 cells, 96 h): 49.68% | % inhibition at top conc. (SCC-4, 96 h): 26.22% | % inhibition at top conc. (SCH cells, 96 h): 53.08% | IC50 (SF763, SF-763): 760 nM | % inhibition at top conc. (SK-MEL-5, 96 h): 25.67% | % inhibition at top conc. (SK-MEL-28, 96 h): 13.20% | % inhibition at top conc. (SK-OV-3 cells, 96 h): 34.62% | IC50 (SNU620, 96 h, SNU-620 cells, 96 h): > 30000 nM | IC50 (SNU668, 96 h, SNU-668 cells, 96 h): > 30000 nM | % inhibition at top conc. (SNU-1 cells, 96 h): 74.67% | % inhibition at top conc. (SNU-5, 96 h): 54.08% | IC50 (SNU-81): > 30000 nM | IC50 (SNU-216, 96 h, SNU-216 cells, 96 h): > 30000 nM | IC50 (SNU-368): > 30000 nM | IC50 (SNU-484, 96 h, SNU-484 cells, 96 h): > 30000 nM | % inhibition at top conc. (SNU-484 cells, 96 h): 45.94% | IC50 (SNU-601, 96 h, SNU-601 cells, 96 h): 490 nM | % inhibition at top conc. (SNU-601 cells, 96 h): 67.28% | % inhibition at top conc. (SNU-638 cells, 96 h): 56.77% | % inhibition at top conc. (SNU-719 cells, 96 h): 32.64% | IC50 (SNU-739, SNU-739): 20900 nM | % inhibition at top conc. (SNU-761 cells, 96 h): 59.03% | % inhibition at top conc. (SNU-2535 cells, 96 h): 46.87% | IC50 (SNU-C2A): 580 nM | IC50 (SW579, 96 h, SW579 cells, 96 h): > 30000 nM | % inhibition at top conc. (SW684 cells, 96 h): 4.22% | % inhibition at top conc. (SW948 cells, 96 h): 46.17% | IC50 (SW1271, SW1271): > 30000 nM | IC50 (U266B1): > 30000 nM | % inhibition at top conc. (UACC-812 cells, 96 h): 20.05% | % inhibition at top conc. (YCC-1 cells, 96 h): 29.02% | % inhibition at top conc. (YCC-6 cells, 96 h): 56.86% | % inhibition at top conc. (YCC-10, 96 h): 38.86% | IC50 (YCC-11, 96 h, YCC-11 cells, 96 h): > 30000 nM | % inhibition at top conc. (YCC-11 cells, 96 h): 48.65% | % inhibition at top conc. (ZR-75-30, 96 h): 10.01%
